# Laboratory results taken from the METLIN SMRT retention time set (Domingo-Almenara et al. 2019).
# Assay: gradient 5% acetonitrile 3 min, to 50% in 2 min, to 85% in 15 min, held 3 min, 100 µL/min
# Details: column: Zorbax Extend-C18 2.1 x 50 mm; eluents: water / acetonitrile, 0.1% formic acid
# How it was run: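 Mixtures of ~100 pure standards were chromatographed on a Zorbax Extend-C18 column (2.1 × 50 mm, 1.8 μm) at 100 μL/min using water and acetonitrile, each with 0.1% formic acid. Detection used a quadrupole time-of-flight mass spectrometer in positive and negative ionization mode, and data collection spanned 3 months. Retention time was obtained from adduct peaks picked computationally and each checked manually.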
row,Structure (SMILES),RP-LC retention time [s]
1,Cc1[nH]c(C(=O)N2CCC(CC(=O)NCc3cccnc3)CC2)c(C)c1C(=O)OC(C)C,597
2,CCC(CC)NC(=O)C1CCCCC(=O)N1 (stereo not drawn),652
3,Cc1ccc(CNC(=O)Cc2csc3nc(-c4ccc(C)c(C)c4)cn23)cc1,896
4,Cc1cccc(CN2CC(=O)N(c3ccc(C)c(C)c3)[C@@H]3CS(=O)(=O)C[C@@H]32)c1,906
5,O=C(C1CCN(c2nnc(-c3ccccc3)o2)CC1)N1CCN(c2ccccn2)CC1,602
6,COc1ccc2c(c1)C1(CCN(C(=O)c3ccccc3F)C1)C(=O)N2C (stereo not drawn),752
7,Cc1ccc(Nc2nc(C)cc(N3CCN(C(=O)Nc4ccccc4C)CC3)n2)cc1,704
8,CC(=O)N1CCc2cc(N3CC(C(=O)Nc4ccc(Cl)cc4C)CC3=O)ccc21 (stereo not drawn),735
9,COCc1nncn1C1CCN(S(=O)(=O)c2cc(F)ccc2OC)CC1,679
10,Cc1nc2cc(N3CC(C(=O)NCc4ccc(Br)cc4)CC3=O)ccc2o1 (stereo not drawn),761
11,COc1ccccc1NS(=O)(=O)c1cc2n(c1)CCN(C(C)C)C2=O,733
12,CC(C)S(=O)(=O)c1cc2c(cc1NC(=O)c1ccccc1Br)n(C)c(=O)n2C,822
13,O=C(Cn1c(=O)oc2ccc(C(=O)N3CCCC3)cc21)N1CCC(Cc2ccccc2)CC1,868
14,O=C1NCCCCCN(C(=O)c2ccc(Cn3ccnc3)o2)[C@H]2CCC[C@@H]12,567
15,CN(C)C(=O)CC1CCOC2(CCN(C(=O)CCn3cnnn3)CC2)C1 (stereo not drawn),604
16,O=C(NC1CCCC1)c1ccc2ncnc(N3CCCCC3)c2c1,640
17,CC(C)=C1C(=O)Nc2ccc(S(=O)(=O)N3CCN(c4ccccn4)CC3)cc21,612
18,CCn1cc(-c2ccc(Cl)cc2)cc1C(=O)NCC1CCCO1 (stereo not drawn),1010
19,Cc1sc(-c2nc(-c3ccccc3)no2)cc1S(=O)(=O)N1CCN(c2ncccn2)CC1,1210
20,COC(=O)Nc1nc(CC(=O)Nc2ccc(OC(F)(F)F)cc2)cs1,766

row,Structure (SMILES),RP-LC retention time [s]
1,COc1cccc(-c2nc(-c3ccc4c(c3)ncn4CCN3CCCCC3)no2)c1OC,680
2,COc1ccc(C(=O)N2CCC(COCc3ccccc3)CC2)cc1,915
3,CCc1cc(C(=O)NCCN2CCOCC2)nc2cc(-c3ccccn3)nn12,592
4,Cc1cc(C)cc(NC(=O)Cc2cn(C)c3ncccc23)c1,689
5,CN1CCN(C(=O)C2CCN(S(=O)(=O)c3ccc(-c4noc(C5CC5)n4)cc3)CC2)CC1,636
6,COCCCNS(=O)(=O)c1ccccc1-c1nc(-c2ccc(F)cc2)no1,905
7,COCCN1C(=O)[C@H]2CN(Cc3cc(OC)ccc3OC)C[C@H]2C1=O,595
8,Cc1ccc(-n2c(N3CCCC(C(=O)NCC(C)C)C3)nc3ccsc3c2=O)cc1 (stereo not drawn),847
9,O=C(Nc1cccnc1)C1(CCO)CCN(c2ncccn2)C1 (stereo not drawn),529
10,COc1ccc(CCNC(=O)c2ccc3c(c2)N(C)C(=O)C2CCCCN32)cc1OC (stereo not drawn),774
11,Cn1c(N2CCC(C(=O)N3CCN(c4ccc(F)cc4)CC3)CC2)cc(=O)n(C)c1=O,704
12,CCN1C(SCC(=O)N2CCCC2)=NS(=O)(=O)c2ccccc21,684
13,Cc1ccc2c(c1)N(S(C)(=O)=O)CCC(C(=O)Nc1ccc(F)c(Cl)c1)O2 (stereo not drawn),998
14,Cc1oc(-c2[nH]ncc2C(=O)N2CCCC2)cc1S(=O)(=O)Nc1ccc(F)c(F)c1,734
15,CNC(=O)c1sc(-c2ccccc2F)nc1C,772
16,CCCN1C(=O)c2cc(C(=O)NCc3ccc(C)cc3)nn2CC1(C)C(=O)NC1CCCC1 (stereo not drawn),854
17,CCOc1ccc(S(=O)(=O)N2CCC(C(=O)N3CCCCCC3)CC2)cc1C,951
18,COc1ccc(S(=O)(=O)N2CCC(C(=O)NCCc3csc(-c4ccccc4)n3)CC2)cc1,912
19,CC(=O)OC[C@@]1(O)C[C@@]23CC[C@@H]4c5ccoc5C=C[C@@]4(C)[C@@H]2CC[C@@H]1C3,715
20,CCCS(=O)(=O)N1CCC(c2noc(-c3ccncc3)n2)C1 (stereo not drawn),751

row,Structure (SMILES),RP-LC retention time [s]
1,Cn1c(=O)c2c(ncn2CC(=O)N2CCC(Cc3nc(C4CCOCC4)no3)CC2)n(C)c1=O,610
2,CCCC(=O)Nc1nc(-c2ccc3c(c2)N(C)C(=O)CO3)cs1,821
3,C=CCN1C(=O)C(C)(C)COc2ccc(NC(=O)Oc3ccccc3)cc21,960
4,COc1ccc(S(=O)(=O)NCCc2c[nH]c3ccc(F)cc23)cc1,866
5,Cc1oc2ccn(Cc3ccccc3F)c(=O)c2c1C(=O)NC(C)c1ccccc1 (stereo not drawn),1150
6,COCCc1nncn1C1CCN(C(=O)c2ccccc2OC(F)(F)F)CC1,646
7,CC(C)(C)c1cc(C(=O)Nc2cc(F)ccc2F)nc2ccnn12,1450
8,O=C([C@@H]1C[C@H](F)CN1S(=O)(=O)c1ccc(F)cc1F)N1CCOCC1,692
9,Cc1nc(CCNS(=O)(=O)c2ccc(Oc3ccccc3)cc2)cs1,845
10,CCOCCCNC(=O)C1Cn2cccc2C(=O)N1 (stereo not drawn),592
11,COc1ccc(CC(=O)Nc2cc3c(cc2SC(C)C)n(C)c(=O)n3C)cc1,923
12,CCOC(=O)c1cnn(-c2ccc(Cl)nn2)c1C,871
13,COc1ccc(N2CCN(S(=O)(=O)c3cc(-c4cnn5c(C)cc(C)nc45)ccc3C)CC2)cc1,1170
14,CS(=O)(=O)c1ccc(NC(=O)Cn2cnc3c(sc4nc(-c5ccccc5)ccc43)c2=O)cc1,862
15,CCOC(=O)Cn1cc(S(=O)(=O)N2CCCC2)ccc1=O,696
16,CC(NC(=O)c1ccc(Oc2nccnc2N2CCSCC2)cc1)c1ccc(F)cc1 (stereo not drawn),965
17,CCOc1ccc(CNC(=O)CCc2c(-c3ccc(Br)cc3)nc3ccccn23)cc1,717
18,Cc1ccc(NC(=O)N2CCN(CCn3cnc4cccnc43)CC2)cc1Cl,636

# More lines, now with the values ahead:
row,RP-LC retention time [s],Structure (SMILES)
1,808,Cc1nn(-c2ccc(F)cc2)c2c1c(=O)c(C(=O)NCc1cccs1)cn2C
2,650,OCCN1CCN(c2ncnc3c2cnn3-c2ccc(Cl)cc2)CC1
3,764,CC(C)NC(=O)c1ccc(Nc2c(-c3ccc(Cl)cc3)nc3cnccn23)cc1
4,889,COc1ccc(NC(=O)Cc2csc3nc(-c4cccc(Cl)c4)cn23)cc1
5,870,Cc1ccc(NC(=O)C2CCCN(c3ncnc4c3nc3n4CCCCC3)C2)cc1C (stereo not drawn)
6,611,COC[C@@H]1CN(C(=O)c2cc(Cl)ccc2F)C[C@H]1C(N)=O
7,1130,CCCCCn1c(=O)c2ccccc2n(Cc2nc(-c3ccccc3OC)no2)c1=O
8,820,Cc1ccc2[nH]cc(CCN3CC(C(=O)Nc4cccc(C)c4C)CC3=O)c2c1 (stereo not drawn)
9,900,COCCCNC(=O)COc1ccccc1-c1nnc(-c2ccccc2)o1
10,707,Cc1nc(CNC(=O)C2CCN(C(=O)Nc3cccc(Br)c3)CC2)cs1
11,593,CC(C)(C)NC(=O)NCC(c1ccsc1)N1CCc2ccccc2C1 (stereo not drawn)
12,992,CCC(CC)C(=O)Nc1nc(-c2ccc3c(c2)N(C)C(=O)C(C)O3)cs1 (stereo not drawn)
13,875,CC1(C(=O)NCc2ccc(F)cc2)CCCN(C(=O)NC2COc3ccccc3C2)C1 (stereo not drawn)
14,680,CC(=O)N1CCN(C(=O)CN2C(=O)C3CCCCN3c3ccc(S(=O)(=O)N(C)C)cc32)CC1 (stereo not drawn)
15,960,Cc1cccc(C)c1OCC(=O)N(Cc1ccc(Br)o1)C1CCS(=O)(=O)C1 (stereo not drawn)
16,964,CCCOc1ccc(C2C(C(=O)N3CCOCC3)=C(C)NC3=C2C(=O)CCC3)cc1OC (stereo not drawn)
17,928,CCOC(=O)Oc1ccc2c(=O)c(Oc3cccc(OC)c3)coc2c1
18,584,CN(C)CC(=O)N1CC(F)(F)C[C@H]1c1nc(C2CC2)no1
19,913,O=C(NCc1ccccc1)c1c(O)c2cccnc2[nH]c1=O
20,824,CCn1cc(CCNC(=O)Nc2ccc(Cl)cc2F)c2cccnc21
21,829,COc1ccc(NC(=O)c2cnc(-c3ccc(OC)cc3)nc2-c2ccncc2)cc1
22,1060,CCc1ccc(NC(=O)C2CCN(S(=O)(=O)c3ccc4c(c3)sc(=O)n4C(C)C)CC2)cc1
23,776,COc1cccc(NC(=O)CN2C(=O)c3ccccc3Sc3ncccc32)c1
24,816,O=C(CSc1ccc(-n2cnc(-c3ccccc3)c2)nn1)Nc1ccc(F)cc1F
25,1140,O=C(O)c1cc2ccccc2cc1Nc1ccccc1
26,944,CCOc1ccc2nc(C(=O)NCc3cccc(Br)c3)cn2n1
27,919,CCCn1ccc2sc(C)c(C(=O)NCc3ccc(SC)cc3)c2c1=O
28,829,COc1cccc(CNC(=O)c2nnc(-c3ccc(S(=O)(=O)N(C)C)cc3)o2)c1OC
29,910,Cc1ccc(-c2c(C(F)(F)F)nn3c(N4CCN(c5ccccn5)CC4)cc(C)nc23)cc1
30,918,Cc1ccc(-n2c(N3CCCC(C(=O)NCc4ccc(F)cc4F)C3)nc3ccsc3c2=O)cc1 (stereo not drawn)
